Experiment [1] has as its target B-Raf(V600E) kinase (SEQ ID NO:11) (Homo sapiens, UniProt P15056, V600E). Briefly: B-Raf(V600E) kinase assay (pyruvate kinase/lactate dehydrogenase coupled, MEK1 substrate). The conditions noted are these: 1 h preincubation at 30° C., ATP 0.2 mM; read-out: B-Raf V600E Enzyme Assay, biochemical IC50. Here is the method: B-Raf(V600E) Kinase Assay
The activity of B-Raf(V600E) kinase (SEQ ID NO:11) was determined by following the formation of ADP from the reaction through coupling with the pyruvate kinase/lactate dehydrogenase system (e.g., Schindler, et al. Science (2000) 289, 1938-1942). In this assay, the oxidation of NADH (thus the decrease at A340nm) was continuously monitored spectrophotometrically. The reaction mixture (100 μl) contained B-Raf(V600E) kinase (0.34 nM nominal concentration, SEQ ID NO:11), unphosphorylated, full-length MEK1 (42 nM, SEQ ID NO:12), MgCl2 (13 mM), pyruvate kinase (3.5 units), lactate dehydrogenase (5.5 units), phosphoenolpyruvate (1 mM), and NADH (0.28 mM), in 60 mM Tris buffer, containing 0.13% octyl-glucoside and 3.5% DMSO concentration at pH 7.5. The test compounds were incubated with the reaction mixture at 30° C. for 1 h. The reaction was initiated by adding ATP (0.2 mM, final concentration). The absorption at 340 nm was continuously monitored for 3 h at 30° C. on a Polarstar Optima plate reader (BMG). The reaction rate was calculated using the 0.5 h to 1.5 h time frame. Percent inhibition was obtained by comparison of reaction rate with that of a control (i.e. with no test compound). IC50 values were calculated from a series of percent inhibition values determined at a range of inhibitor concentrations using software routines as implemented in the GraphPad Prism software package.

The target of experiment [2] is T1, T315I Abl kinase (SEQ ID NO:2) (Homo sapiens, UniProt P00519, T315I).
T1 construct: purchased deCode Genetics
T1 sequence (P00519 with tags, fused parts or gaps T315I): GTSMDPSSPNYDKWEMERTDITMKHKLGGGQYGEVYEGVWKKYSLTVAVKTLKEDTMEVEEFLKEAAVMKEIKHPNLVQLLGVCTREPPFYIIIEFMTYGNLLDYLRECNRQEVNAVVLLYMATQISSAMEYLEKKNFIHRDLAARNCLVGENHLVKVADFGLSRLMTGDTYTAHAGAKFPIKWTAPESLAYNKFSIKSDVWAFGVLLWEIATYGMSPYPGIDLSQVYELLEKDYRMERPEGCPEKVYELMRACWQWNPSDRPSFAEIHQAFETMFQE
Briefly: T315I Abl kinase assay (pyruvate kinase/lactate dehydrogenase coupled). Particulars: 1 h preincubation at 30° C., ATP 500 μM; read-out: Abl T315l Enzyme Assay, biochemical IC50. Here is the method:
Abl Kinase (SEQ ID NO:2) Assay
Activity of T315I Abl kinase (SEQ ID NO:2) was determined by following the production of ADP from the kinase reaction through coupling with the pyruvate kinase/lactate dehydrogenase system (e.g., Schindler, et al. Science (2000) 289, 1938-1942). In this assay, the oxidation of NADH (thus the decrease at A340nm) was continuously monitored spectrophometrically. The reaction mixture (100 μl) contained Abl kinase (4.4 nM. […] Abl from deCode Genetics), peptide substrate (EAIYAAPFAKKK, 0.2 mM), MgCl2 (10 mM), pyruvate kinase (4 units), lactate dehydrogenase (0.7 units), phosphoenol pyruvate (1 mM), and NADH (0.28 mM) in 90 mM Tris buffer containing 0.2% octyl-glucoside and 1% DMSO, pH 7.5. Test compounds were incubated with T315I Abl (SEQ ID NO:2) and other reaction reagents at 30° C. for 1 h before ATP (500 μM) was added to start the reaction. The absorption at 340 nm was monitored continuously for 2 hours at 30° C. on Polarstar Optima plate reader (BMG). The reaction rate was calculated using the 1.0 to 2.0 h time frame. Percent inhibition was obtained by comparison of reaction rate with that of a control (i.e. with no test compound). IC50 values were calculated from a series of percent inhibition values determined at a range of inhibitor concentrations using software routines as implemented in the GraphPad Prism software package.

Experiment [3] has as its target T2, BaF3 cells transfected with T315I p210 BCR-Abl (Homo sapiens, UniProt P00519, T315I, cells depend on it).
T2 construct: fused on or other part: P11274 (Breakpoint cluster region protein)
Put plainly: Ba/F3 p210 T315I whole cell proliferation assay (Cell Titer Blue, 72 hours). The experiment is classed as cell-based. Particulars: 72 hours incubation; read-out: Ba/F3 p210 T315I whole cell proliferation assay, antiproliferation IC50. On the procedure:
BaF3 cells (parental or transfected with the following: wild type p210 BCR-Abl and T315I p210 BCR-Abl was obtained from Professor Richard Van Etten (New England Medical Center, Boston, Mass.). Briefly, cells were grown in RPMI 1640 supplemented with 10% characterized fetal bovine serum (HyClone, Logan, Utah) at 37 degrees Celsius, 5% CO2, 95% humidity. Cells were allowed to expand until reaching 80% saturation at which point they were subcultured or harvested for assay use.
A serial dilution of test compound was dispensed into a 96 well black clear bottom plate (Corning, Corning, N.Y.). For each cell line, three thousand cells were added per well in complete growth medium. Plates were incubated for 72 hours at 37 degrees Celsius, 5% CO2, 95% humidity. At the end of the incubation period Cell Titer Blue (Promega, Madison, Wis.) was added to each well and an additional 4.5 hour incubation at 37 degrees Celsius, 5% CO2, 95% humidity was performed. Plates were then read on a BMG Fluostar Optima (BMG, Durham, N.C.) using an excitation of 544 nm and an emission of 612 nm. Data was analyzed using Prism software (Graphpad, San Diego, Calif.) to calculate IC50's.

Broadly, the IC50 is the concentration at which inhibition is half-maximal.

Sequence of B-Raf(V600E) kinase (SEQ ID NO:11) (P15056 with tags, fused parts or gaps V600E): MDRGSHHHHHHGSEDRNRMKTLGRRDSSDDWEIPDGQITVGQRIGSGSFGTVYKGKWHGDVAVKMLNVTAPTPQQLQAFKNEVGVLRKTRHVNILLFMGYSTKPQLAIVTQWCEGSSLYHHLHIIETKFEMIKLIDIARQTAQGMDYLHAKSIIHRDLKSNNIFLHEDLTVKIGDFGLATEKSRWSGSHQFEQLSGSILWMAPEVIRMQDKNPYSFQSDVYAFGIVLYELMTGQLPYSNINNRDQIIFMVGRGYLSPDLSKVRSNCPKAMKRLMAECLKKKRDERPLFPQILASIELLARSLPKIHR

On to `CCc1cc(NC(=O)Nc2ccc(Oc3ccnc(-c4cnn(C)c4)c3)cc2F)n(-c2ccc(CO)cc2)n1` [Example 19, 1-(3-ethyl-1-(4-(hydroxymethyl)phenyl)-1H-pyrazol-5-yl)-3-(2-fluoro-4-(2-(1-methyl-1H-pyrazol-4-yl)pyridin-4-yloxy)phenyl)urea], for which the IC50 in experiment [1] is under 1000 nM; in experiment [2], under 100 nM. Also, in experiment [3], the GI50 is under 100 nM.

On to `CC(C)n1cc(NC(=O)Nc2ccc(Oc3ccnc(-c4cnn(C)c4)c3)cc2F)c(-c2ccccc2)n1` [Example 21, 1-(2-fluoro-4-(2-(1-methyl-1H-pyrazol-4-yl)pyridin-4-yloxy)phenyl)-3-(1-isopropyl-3-phenyl-1H-pyrazol-4-yl)urea], for which the IC50 in experiment [1] is under 1000 nM; in experiment [2], under 100 nM. In addition, in experiment [3], the GI50 was under 100 nM.

`CC(C)c1cc(NC(=O)Nc2ccc(Oc3ccnc(-c4cnn(C)c4)c3)cc2F)n(-c2cccc(F)c2)n1` [Example 24, 1-(2-fluoro-4-(2-(1-methyl-1H-pyrazol-4-yl)pyridin-4-yloxy)phenyl)-3-(1-(3-fluorophenyl)-3-isopropyl-1H-pyrazol-5-yl)urea]: the IC50 in experiment [1] and in experiment [2] was under 100 nM each time. In addition, the GI50 in experiment [3] was under 100 nM.

For the compound `Cn1cc(-c2cc(Oc3ccc(NC(=O)Nc4cc(-c5ccccc5F)nn4C)c(F)c3F)ccn2)cn1` [Example 25, 1-(2,3-difluoro-4-(2-(1-methyl-1H-pyrazol-4-yl)pyridin-4-yloxy)phenyl)-3-(3-(2-fluorophenyl)-1-methyl-1H-pyrazol-5-yl)urea], the IC50 in experiment [1] is under 1000 nM; in experiment [2] it was under 100 nM. For the same compound, the GI50 in experiment [3] was under 10000 nM.
